Experimental data reported in article PMC12469161, “Anti-cancer compound screening identifies Aurora Kinase A inhibition as a means to favor CRISPR/Cas9 gene correction over knock-out” (PLOS One, 2025).
Like-named read-outs stand apart in the source and are kept apart here.

Key:
HEK293T-eGFP cells = assay: MTT cytotoxicity assay, 72 hours; type: cell-based; details: HEK293T-eGFP cells, 3 days of incubation, MTT, read-out: IC50
Method: Cells were cultured for 16–24 hours under standard culturing conditions (5% CO2, 37 °C). […] All dose ranges were added in duplicate, followed by 72 hours of incubation. Cell viability was determined using a tetrazolium based metabolic activity assay. Briefly, 5 µL of 3-(4.5-dimethylthiazol-2-yl)-2,5-diphenyltetrazolium bromide (MTT) solution (5 mg/mL MTT in sterile PBS) was added per well, and the microplates were incubated for 4 hours at 37°C and 5% CO2 in a cell culture incubator. Next, 40 µL of 10% SDS/0.01 M HCl was added per well, and the microplates were incubated for 24–72 hours at 37°C and 5% CO2 in a cell culture incubator. Subsequently the absorbance at 570 nm and background absorbance at 720 nm were measured using the Spectramax i3x (Molecular Devices, San Jose, USA). Subsequently, the absorbance values at 720 nm were subtracted from the absorbance values at 570 nm, and the corresponding values were used to plot dose-response curves.
The data was normalized to the DMSO-treated cells (defined as 100% viability) and the empty controls (defined as 0% viability).

[1] = system: eGFP locus in HEK293T-eGFP cells (HDR vs NHEJ); assay: CRISPR gene-editing outcome (eGFP to BFP conversion, flow cytometry) with CRISPR-Cas9 LNP; type: cell-based; details: for preferential activation of HDR over NHEJ in hit validation: narrowed dose range, triplicate, vs LNP only; for effect on the NHEJ and HDR outcomes: validated hits, Fig 2B; for effect on relative HDR in the compound screen: up to three dosages based on IC50, single measurements
Method: Compounds were assessed in three dosages to assess the effects on gene-editing efficacy. […] Cells were incubated with these compounds for 24 hours prior to LNP addition. LNP were added to all wells at a final concentration of 20 nM SpCas9 to achieve robust genome editing. After 24 hours of co-incubation, medium was refreshed and cells were transferred to a 48 well plate for further culturing. Six days after adding compounds, cells were processed for flow cytometric analysis of the gene knock-out and gene-correction efficiencies. Briefly, a ssDNA template was used carrying two nucleotide mutations to convert the eGFP sequence to that of a blue fluorescent protein (BFP), as well as mutating the PAM sequence to ensure robust HDR. The sgRNA spacer sequence was 5’-[…]-3’, and the HDR template sequence was 5’-[…]-3’.
Flow cytometry using the BD FACS Canto II (Becton Dickinson) was used to determine cells undergoing NHEJ (eGFP and BFP negative population) and HDR (eGFP negative, BFP positive). Data analysis was performed using Flowlogic (version 8.7). Graphpad PRISM (version 9.3.1) was used for statistical analysis and preparing graphs.
The percentage of HDR relative to total gene editing in a given cell population (hereafter named Relative HDR (% of edited cells) was calculated by dividing the absolute HDR population by the sum of gene-edited cells found in the BFP+ and eGFP- gates. Absolute HDR (% of all cells) and Absolute NHEJ (% of all cells) were analyzed where appropriate. The gating strategy is given in S1 Fig in S1 File.

| SMILES | IC50 (HEK293T-eGFP cells; 72 h) | further results |
| --- | --- | --- |
| CNCc1ccc(-c2[nH]c3cc(F)cc4c3c2CCNC4=O)cc1 [Rucaparib] | > 10000 nM | preferential activation of HDR over NHEJ in hit validation [1]: strong dose-dependent preferential activation of HDR over NHEJ; effect on the NHEJ and HDR outcomes [1]: inhibited NHEJ and improved HDR |
| CC[C@@H]1C(=O)N(C)c2cnc(Nc3ccc(C(=O)N[C@H]4CC[C@H](N5CCN(CC6CC6)CC5)CC4)cc3OC)nc2N1C(C)C [Volasertib] | 24.5 nM | – |
| CC(=O)O[C@H]1C(=O)[C@@]2(C)[C@H]([C@H](OC(=O)c3ccccc3)[C@]3(O)C[C@H](OC(=O)[C@H](O)[C@@H](NC(=O)c4ccccc4)c4ccccc4)C(C)=C1C3(C)C)[C@]1(OC(C)=O)CO[C@@H]1C[C@@H]2O [Paclitaxel] | 3.12 nM | – |
| O=C(NC1CCNCC1)c1[nH]ncc1NC(=O)c1c(Cl)cccc1Cl [AT7519] | 438 nM | – |
| O=C(/C=C/c1cccc(S(=O)(=O)Nc2ccccc2)c1)NO [Belinostat] | 1100 nM | preferential activation of HDR over NHEJ in hit validation [1]: strong dose-dependent preferential activation of HDR over NHEJ; effect on the NHEJ and HDR outcomes [1]: increased both NHEJ and HDR |
| CC[C@H](Nc1nc(NCc2cnc(C)cc2C)c2ncn(C(C)C)c2n1)[C@@H](C)O [CYC065] | 255 nM | – |
| COc1cccc(OCCCN)c1-c1cc(Nc2cnc(C#N)cn2)n[nH]1 [Prexasertib] | 5.33 nM | – |
| CCn1cc(-c2cccc(C(F)(F)F)c2)c2sc(C(=N)NC3CCS(=O)(=O)CC3)cc2c1=O [I-BRD9] | – | IC50 (HEK293T-eGFP cells): 8940 nM |
| CCN1CCN(Cc2ccc(Nc3ncc(F)c(-c4cc(F)c5nc(C)n(C(C)C)c5c4)n3)nc2)CC1 [Abemaciclib] | 1070 nM | – |
| Cc1ncc(Cl)cc1NCc1ccc(C(=O)N[C@@H](CC2CCCC2)C(=O)NC2CC2)s1 [GSK2830371] | > 10000 nM | – |
| Nc1ccccc1NC(=O)c1ccc(CNC(=O)OCc2cccnc2)cc1 [Entinostat] | 3560 nM | effect on relative HDR in the compound screen [1]: did not show the same effect |
| Nc1cc(F)ccc1NC(=O)c1ccc(CNC(=O)/C=C/c2cccnc2)cc1 [Epidaza] | > 10000 nM | effect on relative HDR in the compound screen [1]: did not show an effect towards improving HDR |
| O=c1cc(-c2cccc3c2Sc2ccccc2S3)oc(N2CCOCC2)c1 [KU-55933] | > 10000 nM | – |
| Cc1sc2c(c1C)C(c1ccc(Cl)cc1)=N[C@@H](CC(N)=O)c1nnc(C)n1-2 [CPI-203] | – | IC50 (HEK293T-eGFP cells): 651 nM |
| CNCc1ccc(-c2cc(-c3nc(-c4ccc(S(=O)(=O)C(C)C)cc4)cnc3N)on2)cc1 [Berzosertib] | 335 nM | – |
| CN(C)C(=O)c1cc2cnc(Nc3ccc(N4CCNCC4)cn3)nc2n1C1CCCC1 [Ribociclib] | > 10000 nM | – |
| Oc1nc(-c2ccc(C(F)(F)F)cc2)nc2c1CSCC2 [XAV-939] | > 10000 nM | – |
| COc1ccc(Cn2ccc3ccc(C(=O)NO)cc32)cc1 [PCI-34051] | – | IC50 (HEK293T-eGFP cells): > 10000 nM |
| C=CCn1c(=O)c2cnc(Nc3ccc(N4CCN(C)CC4)cc3)nc2n1-c1cccc(C(C)(C)O)n1 [Adavosertib] | 227 nM | – |
